16 compounds from patent publication US4874752A, “Benzoquinone derivatives and production thereof” (Takeda Chemical Industries, Ltd., priority 1982, dated 1989) can be followed below.

The target in the assay is T1, protocollagen-proline hydroxylase (Gallus gallus, UniProt P16924).
T1 construct: partially purified enzyme preparation obtained from chick embryos; from tissue; host or cells: chick embryos (partially purified enzyme)
T1 sequence (P16924 1-516): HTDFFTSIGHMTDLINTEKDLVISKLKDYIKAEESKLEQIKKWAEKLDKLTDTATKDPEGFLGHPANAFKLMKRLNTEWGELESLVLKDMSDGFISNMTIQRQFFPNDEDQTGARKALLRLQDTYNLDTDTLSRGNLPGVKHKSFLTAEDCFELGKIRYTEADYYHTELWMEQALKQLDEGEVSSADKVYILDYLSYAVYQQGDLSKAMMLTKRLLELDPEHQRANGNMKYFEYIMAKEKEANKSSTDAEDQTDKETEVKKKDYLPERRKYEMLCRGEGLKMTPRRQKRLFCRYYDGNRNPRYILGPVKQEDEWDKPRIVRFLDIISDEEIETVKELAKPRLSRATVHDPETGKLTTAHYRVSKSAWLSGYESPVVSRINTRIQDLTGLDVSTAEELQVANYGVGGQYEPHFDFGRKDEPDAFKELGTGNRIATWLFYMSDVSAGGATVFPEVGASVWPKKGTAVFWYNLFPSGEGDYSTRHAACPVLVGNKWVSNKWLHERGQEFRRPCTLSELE
T1 sequence (P09102 23-515 partner): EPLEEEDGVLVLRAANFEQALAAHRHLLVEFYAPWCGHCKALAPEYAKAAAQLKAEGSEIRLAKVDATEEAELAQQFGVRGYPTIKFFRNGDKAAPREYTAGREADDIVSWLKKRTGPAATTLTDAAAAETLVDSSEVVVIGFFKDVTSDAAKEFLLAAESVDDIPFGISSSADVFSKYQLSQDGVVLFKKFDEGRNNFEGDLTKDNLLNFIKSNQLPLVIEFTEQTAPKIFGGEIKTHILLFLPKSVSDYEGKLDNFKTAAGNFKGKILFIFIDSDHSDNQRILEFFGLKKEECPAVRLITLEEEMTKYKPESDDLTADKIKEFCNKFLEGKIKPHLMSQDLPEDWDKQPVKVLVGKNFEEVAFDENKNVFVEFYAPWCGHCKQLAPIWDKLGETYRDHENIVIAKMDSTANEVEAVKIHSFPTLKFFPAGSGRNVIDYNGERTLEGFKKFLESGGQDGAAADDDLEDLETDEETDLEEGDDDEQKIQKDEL
In words: Inhibitory activity of protocollagen-proline hydroxylase. Format: biochemical, chick embryos. The note with it: for inhibition at 10 µM / Inhibition of protocollagen-proline hydroxylase: 10 μM. From the text: Determination of this inhibitory activity was made by the method of R. E. Rhoads et al. [Methods in Enzymology XVII B, 306 (1971)] using a partially purified enzyme preparation obtained from chick embryos in accordance with the methods of K. I. Kivirriko et al. and J. Halme et al. [J. Biol, Chem. 242, 4007 (1967) and Biochim. Biophys. Acta 198, 460 (1967)] and, as a substrate, (Pro-Pro-Gly)5.4H2 O[prepared by the Protein Research Foundation, Osaka]. In this procedure, the partially purified enzyme was used in an amount of 100 μg as protein.

As to `COC1=C(OC)C(=O)C(/C=C/C(C)=O)=C(C)C1=O` [drawing 26], at 2.5 µM the inhibition was 51%; the inhibition – broadly, the change of the read-out against control, counted positive when it falls – at 5 µM turned out to be 72%; the inhibition at 10 µM was 85%; the inhibition at 20 µM is 92%. Also, testing at 50 µM gave an inhibition of 92%.
As for `COC1=C(OC)C(=O)C(CCOc2ccc(CC(=O)O)cc2)=C(C)C1=O`, 2.5 µM produced 64% inhibition, the inhibition at 5 µM is 74%, the “Inhibition of protocollagen-proline hydroxylase” value is reported as 82% and the inhibition at 10 µM was determined as 100%. The inhibition at 20 µM was found to be 100% and the inhibition at 50 µM is 100%.
With `COC1=C(OC)C(=O)C(CCCCCCCCCC(=O)N[C@H]2C(O)O[C@H](CO)[C@@H](O)[C@@H]2O)=C(C)C1=O` (some centres unmarked) [m:0, n:9, Z:COGlcN, N-[10-(2,3-dimethoxy-5-methyl-1,4-benzoquinon-6-yl)decanoyl]glucosamine], 20 µM produced 52% inhibition.
On the same count and under the same terms, with `COC1=C(OC)C(=O)C(CCC(=O)N2CCC[C@H]2C(=O)O)=C(C)C1=O` [m:0, n:2, Z:COPro, 3-(2,3-dimethoxy-5-methyl-1,4-benzoquinon-6-yl)propionyl-L-proline] the figure was 35%.
The same measure, in the same setting: with `COC1=C(OC)C(=O)C(CCCCCCCCCC(=O)N[C@@H](CCCCN)C(=O)O)=C(C)C1=O` [m:0, n:9, Z:COLys, 10-(2,3-dimethoxy-5-methyl-1,4-benzoquinon-6-yl)decanoyl-L-lysine] the figure was 25%.
Consider `COC1=C(OC)C(=O)C(CCOc2ccc(/C=C/C(=O)O)cc2)=C(C)C1=O`, for which at 2.5 µM the inhibition was 62%, the inhibition at 5 µM came out at 72%, the inhibition at 10 µM was found to be 99.9% and the inhibition at 20 µM was determined as 100%. Moreover, the inhibition at 50 µM is 100%.
`COC1=C(OC)C(=O)C(/C=C/C(=O)O)=C(C)C1=O` [drawing 25] showed an inhibition at 2.5 µM of 0%, an inhibition at 5 µM of 22%, an inhibition at 10 µM of 37% and an inhibition at 20 µM of 46%. Moreover, 50 µM produced 68% inhibition.
Take `COC1=C(OC)C(=O)C(CCCCCCCCCC(=O)N[C@H](Cc2ccccc2)C(=O)O)=C(C)C1=O` [m:0, n:9, Z:COPhe, 10-(2,3-dimethoxy-5-methyl-1,4-benzoquinon-6-yl)decanoyl-D-phenylalanine]: the inhibition at 20 µM was 35%.
`COC1=C(OC)C(=O)C(CCCCCCCCCC(=O)N2CSCC2C(=O)O)=C(C)C1=O` (centres unmarked): 20 µM produced 35% inhibition.
`COC1=C(OC)C(=O)C(CCCCCCCCCC(=O)OC[C@H]2OC(O)[C@H](NC(C)=O)[C@@H](O[C@H](C)C(=O)O)[C@@H]2O)=C(C)C1=O` (some centres unmarked) [m:0, n:9, Z:COMurNAc, N-acetyl-6O-[10-(2,3-dimethoxy-5-methyl-1,4-benzoquinon-6-yl)decanoyl]muraminic acid] came in with an inhibition at 20 µM of 32%.
For `COC1=C(OC)C(=O)C(CCCCCCCCCCN2CCOCC2)=C(C)C1=O`, the inhibition at 25 µM (25 μM) turned out to be 30%.
Turning to `COC1=C(OC)C(=O)C(COc2ccc(C(C)C(=O)O)cc2)=C(C)C1=O` (centres unmarked), the inhibition at 2.5 µM was found to be 70%, the inhibition at 5 µM turned out to be 75%, the “Inhibition of protocollagen-proline hydroxylase” value was 92% and the inhibition at 10 µM was 100%. The inhibition at 20 µM came out at 100% and 50 µM produced 100% inhibition.
The compound `COC1=C(OC)C(=O)C(CN2CCOCC2)=C(C)C1=O` gave an inhibition at 20 µM of 78%.
On the same count and under the same terms, the value for `COC1=C(OC)C(=O)C(CCCCCCCCCC(=O)NC(CCC(=O)O)C(=O)O)=C(C)C1=O` (centres unmarked) [m:0, n:9, Z:COGlu] was 37%; that for `COC1=C(OC)C(=O)C(CCC(=O)N[C@@H](CCC(=O)O)C(=O)O)=C(C)C1=O` [m:0, n:2, Z:COGlu, 3-(2,3-dimethoxy-5-methylbenzoquinon-6-yl)propionyl-L-glutamic acid] was 20%; that for `COC1=C(OC)C(=O)C(CCCCCCCCCC(=O)N[C@@H](Cc2c[nH]cn2)C(=O)O)=C(C)C1=O` [m:0, n:9, Z:COHis, 10-(2,3-dimethoxy-5-methyl-1,4-benzoquinon-6-yl)decanoyl-L-histidine] was 52%.
